Experiments:
Details in all cases: Compound concentration 1.0 uM
[1] = target: Tyrosine-protein kinase HCK (Homo sapiens) (UniProt P08631); experiment: Hck(h) Eurofins kinase panel
[2] = target: T1, Ephrin type-B receptor 1 (Homo sapiens) (UniProt P54762); experiment: EphB1(h) Eurofins kinase panel
T1 sequence (whole entry): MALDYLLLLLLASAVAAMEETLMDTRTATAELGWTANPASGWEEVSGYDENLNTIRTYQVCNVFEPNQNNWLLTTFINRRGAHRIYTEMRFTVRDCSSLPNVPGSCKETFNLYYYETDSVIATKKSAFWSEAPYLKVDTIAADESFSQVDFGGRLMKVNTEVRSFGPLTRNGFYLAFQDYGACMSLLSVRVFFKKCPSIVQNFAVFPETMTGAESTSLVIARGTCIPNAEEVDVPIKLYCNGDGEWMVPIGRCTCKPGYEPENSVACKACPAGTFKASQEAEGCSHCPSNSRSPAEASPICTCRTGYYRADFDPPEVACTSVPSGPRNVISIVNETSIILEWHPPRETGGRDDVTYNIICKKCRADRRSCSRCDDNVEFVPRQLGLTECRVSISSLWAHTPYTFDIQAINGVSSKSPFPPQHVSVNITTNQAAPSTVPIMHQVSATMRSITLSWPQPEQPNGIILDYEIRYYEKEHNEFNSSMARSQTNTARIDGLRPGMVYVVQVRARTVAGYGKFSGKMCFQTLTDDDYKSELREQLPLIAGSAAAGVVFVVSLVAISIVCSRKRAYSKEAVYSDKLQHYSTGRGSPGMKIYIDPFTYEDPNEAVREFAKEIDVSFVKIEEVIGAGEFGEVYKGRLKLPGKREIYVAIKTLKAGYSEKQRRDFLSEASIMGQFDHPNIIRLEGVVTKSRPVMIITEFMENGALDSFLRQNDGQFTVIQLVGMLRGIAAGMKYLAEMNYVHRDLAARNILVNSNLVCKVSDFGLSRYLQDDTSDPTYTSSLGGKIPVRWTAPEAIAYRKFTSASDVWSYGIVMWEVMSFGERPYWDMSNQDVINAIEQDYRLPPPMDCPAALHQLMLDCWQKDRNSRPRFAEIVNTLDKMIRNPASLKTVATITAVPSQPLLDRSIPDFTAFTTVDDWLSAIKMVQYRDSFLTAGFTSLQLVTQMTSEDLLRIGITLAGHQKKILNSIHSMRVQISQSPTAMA

[3] = target: Non-receptor tyrosine-protein kinase TYK2 (Homo sapiens) (UniProt P29597); experiment: TYK2(h) Eurofins kinase panel
[4] = target: Transient receptor potential cation channel subfamily M member 7 (Homo sapiens) (UniProt Q96QT4); experiment: ChaK1(h) Eurofins kinase panel
Sequence of Transient receptor potential cation channel subfamily M member 7 (Homo sapiens) (Q96QT4 whole entry): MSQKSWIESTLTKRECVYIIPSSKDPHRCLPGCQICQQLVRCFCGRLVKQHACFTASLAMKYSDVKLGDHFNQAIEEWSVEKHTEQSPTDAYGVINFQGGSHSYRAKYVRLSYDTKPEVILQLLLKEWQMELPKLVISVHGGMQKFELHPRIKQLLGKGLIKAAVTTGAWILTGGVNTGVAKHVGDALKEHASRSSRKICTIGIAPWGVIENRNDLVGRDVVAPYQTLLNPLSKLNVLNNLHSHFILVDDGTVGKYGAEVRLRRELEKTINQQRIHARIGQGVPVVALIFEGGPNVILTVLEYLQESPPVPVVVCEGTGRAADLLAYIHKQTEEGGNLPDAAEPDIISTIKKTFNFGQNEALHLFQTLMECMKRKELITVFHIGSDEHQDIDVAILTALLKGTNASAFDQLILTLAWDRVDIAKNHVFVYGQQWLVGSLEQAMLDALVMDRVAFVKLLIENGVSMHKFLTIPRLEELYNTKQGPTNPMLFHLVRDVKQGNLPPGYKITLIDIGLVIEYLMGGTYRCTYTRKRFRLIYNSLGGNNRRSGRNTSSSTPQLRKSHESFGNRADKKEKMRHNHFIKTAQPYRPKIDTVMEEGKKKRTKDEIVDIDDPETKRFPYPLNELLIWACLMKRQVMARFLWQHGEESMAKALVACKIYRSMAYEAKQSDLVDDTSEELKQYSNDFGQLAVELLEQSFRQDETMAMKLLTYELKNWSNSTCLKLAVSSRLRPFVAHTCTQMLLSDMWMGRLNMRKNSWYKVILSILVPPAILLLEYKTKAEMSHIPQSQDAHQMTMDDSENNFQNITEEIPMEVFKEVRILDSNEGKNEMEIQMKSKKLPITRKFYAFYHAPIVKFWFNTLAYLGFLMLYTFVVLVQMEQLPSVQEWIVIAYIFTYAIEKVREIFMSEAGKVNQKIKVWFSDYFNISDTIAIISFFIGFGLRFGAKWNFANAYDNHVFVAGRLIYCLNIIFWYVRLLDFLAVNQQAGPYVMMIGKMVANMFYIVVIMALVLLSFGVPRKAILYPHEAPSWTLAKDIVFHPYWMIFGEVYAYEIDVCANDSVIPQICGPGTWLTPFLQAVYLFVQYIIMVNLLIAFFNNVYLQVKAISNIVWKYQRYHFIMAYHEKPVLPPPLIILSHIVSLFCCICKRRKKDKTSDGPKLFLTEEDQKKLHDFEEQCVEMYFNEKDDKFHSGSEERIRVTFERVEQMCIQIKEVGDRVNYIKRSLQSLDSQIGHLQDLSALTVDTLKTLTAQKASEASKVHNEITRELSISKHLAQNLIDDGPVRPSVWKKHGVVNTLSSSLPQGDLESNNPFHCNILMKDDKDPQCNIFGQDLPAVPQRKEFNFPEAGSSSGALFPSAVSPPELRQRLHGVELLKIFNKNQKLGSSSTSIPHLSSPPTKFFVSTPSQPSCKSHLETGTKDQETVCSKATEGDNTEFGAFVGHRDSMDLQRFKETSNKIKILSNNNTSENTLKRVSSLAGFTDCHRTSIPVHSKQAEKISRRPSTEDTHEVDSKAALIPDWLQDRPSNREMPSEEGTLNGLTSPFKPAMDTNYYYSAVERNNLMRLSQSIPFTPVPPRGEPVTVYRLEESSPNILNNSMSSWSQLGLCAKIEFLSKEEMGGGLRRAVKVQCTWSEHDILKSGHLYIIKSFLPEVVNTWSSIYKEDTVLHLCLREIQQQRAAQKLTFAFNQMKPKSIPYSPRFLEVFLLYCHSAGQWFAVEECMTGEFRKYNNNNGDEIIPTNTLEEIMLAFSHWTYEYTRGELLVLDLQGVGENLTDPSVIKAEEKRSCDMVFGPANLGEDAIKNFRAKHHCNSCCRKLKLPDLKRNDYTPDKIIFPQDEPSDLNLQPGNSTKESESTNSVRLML

[5] = target: T2, TGF-beta receptor type-1 (Homo sapiens) (UniProt P36897); experiment: TGFBR1(h) Eurofins kinase panel
T2 sequence (whole entry): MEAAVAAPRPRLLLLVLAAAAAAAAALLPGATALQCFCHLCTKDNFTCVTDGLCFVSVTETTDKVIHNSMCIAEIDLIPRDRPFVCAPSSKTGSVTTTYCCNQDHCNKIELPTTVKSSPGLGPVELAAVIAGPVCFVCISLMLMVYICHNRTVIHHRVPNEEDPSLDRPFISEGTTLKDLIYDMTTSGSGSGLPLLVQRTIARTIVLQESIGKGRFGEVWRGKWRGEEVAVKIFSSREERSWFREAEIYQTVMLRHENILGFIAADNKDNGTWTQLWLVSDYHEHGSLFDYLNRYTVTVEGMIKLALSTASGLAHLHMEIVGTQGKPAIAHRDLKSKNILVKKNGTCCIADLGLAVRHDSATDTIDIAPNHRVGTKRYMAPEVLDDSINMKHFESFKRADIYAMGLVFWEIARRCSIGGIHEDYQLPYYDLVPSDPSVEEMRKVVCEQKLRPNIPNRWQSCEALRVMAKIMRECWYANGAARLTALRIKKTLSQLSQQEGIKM

[6] = target: cAMP-dependent protein kinase catalytic subunit alpha (Homo sapiens) (UniProt P17612); experiment: PKA(h) Eurofins kinase panel
[7] = target: T3, Ephrin type-B receptor 2 (Homo sapiens) (UniProt P29323); experiment: EphB2(h) Eurofins kinase panel
T3 sequence (whole entry): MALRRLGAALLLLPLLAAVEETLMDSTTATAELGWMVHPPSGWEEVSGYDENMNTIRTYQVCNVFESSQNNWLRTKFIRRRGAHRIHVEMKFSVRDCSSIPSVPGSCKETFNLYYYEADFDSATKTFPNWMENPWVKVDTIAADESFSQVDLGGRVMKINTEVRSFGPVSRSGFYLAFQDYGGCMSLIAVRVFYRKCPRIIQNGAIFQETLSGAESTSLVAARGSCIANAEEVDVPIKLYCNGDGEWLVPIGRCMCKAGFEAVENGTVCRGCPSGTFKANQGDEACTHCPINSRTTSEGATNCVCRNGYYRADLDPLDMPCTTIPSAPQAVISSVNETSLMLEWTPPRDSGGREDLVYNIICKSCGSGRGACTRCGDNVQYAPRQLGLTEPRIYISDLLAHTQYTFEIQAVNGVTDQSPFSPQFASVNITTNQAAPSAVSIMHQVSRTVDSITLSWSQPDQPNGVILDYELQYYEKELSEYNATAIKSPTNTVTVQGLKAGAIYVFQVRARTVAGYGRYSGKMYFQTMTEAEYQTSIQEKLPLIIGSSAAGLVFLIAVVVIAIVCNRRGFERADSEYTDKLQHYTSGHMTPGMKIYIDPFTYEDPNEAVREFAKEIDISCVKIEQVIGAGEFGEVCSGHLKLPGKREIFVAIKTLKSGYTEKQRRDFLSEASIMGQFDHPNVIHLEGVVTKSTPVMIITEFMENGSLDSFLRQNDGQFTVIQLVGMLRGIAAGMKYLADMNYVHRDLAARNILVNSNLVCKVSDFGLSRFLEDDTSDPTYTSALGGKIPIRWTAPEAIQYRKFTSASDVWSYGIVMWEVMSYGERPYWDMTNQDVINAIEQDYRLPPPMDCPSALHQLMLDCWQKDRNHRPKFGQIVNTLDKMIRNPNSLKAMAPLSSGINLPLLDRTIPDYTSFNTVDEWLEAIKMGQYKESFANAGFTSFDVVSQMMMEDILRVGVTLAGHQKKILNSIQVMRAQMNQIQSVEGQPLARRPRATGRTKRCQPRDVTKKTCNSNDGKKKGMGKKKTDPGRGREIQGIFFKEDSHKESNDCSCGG

[8] = target: Casein kinase I isoform gamma-2 (Homo sapiens) (UniProt P78368); experiment: CK1gamma2(h) Eurofins kinase panel
Sequence of Casein kinase I isoform gamma-2 (Homo sapiens) (P78368 whole entry, looked up, canonical isoform): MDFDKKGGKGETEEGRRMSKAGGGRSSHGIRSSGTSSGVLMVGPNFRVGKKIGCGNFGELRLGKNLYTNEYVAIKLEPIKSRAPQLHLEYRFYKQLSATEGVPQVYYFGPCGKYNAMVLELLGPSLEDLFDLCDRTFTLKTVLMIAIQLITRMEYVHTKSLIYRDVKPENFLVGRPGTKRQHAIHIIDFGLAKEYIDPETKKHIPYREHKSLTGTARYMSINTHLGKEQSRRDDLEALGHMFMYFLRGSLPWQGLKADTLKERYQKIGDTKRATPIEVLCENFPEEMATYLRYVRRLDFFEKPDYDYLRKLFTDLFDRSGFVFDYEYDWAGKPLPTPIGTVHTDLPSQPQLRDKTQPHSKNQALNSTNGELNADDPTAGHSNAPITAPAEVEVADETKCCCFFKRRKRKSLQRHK

[9] = target: Receptor tyrosine-protein kinase erbB-4 (Homo sapiens) (UniProt Q15303); experiment: ErbB4(h) Eurofins kinase panel
Sequence of Receptor tyrosine-protein kinase erbB-4 (Homo sapiens) (Q15303 whole entry): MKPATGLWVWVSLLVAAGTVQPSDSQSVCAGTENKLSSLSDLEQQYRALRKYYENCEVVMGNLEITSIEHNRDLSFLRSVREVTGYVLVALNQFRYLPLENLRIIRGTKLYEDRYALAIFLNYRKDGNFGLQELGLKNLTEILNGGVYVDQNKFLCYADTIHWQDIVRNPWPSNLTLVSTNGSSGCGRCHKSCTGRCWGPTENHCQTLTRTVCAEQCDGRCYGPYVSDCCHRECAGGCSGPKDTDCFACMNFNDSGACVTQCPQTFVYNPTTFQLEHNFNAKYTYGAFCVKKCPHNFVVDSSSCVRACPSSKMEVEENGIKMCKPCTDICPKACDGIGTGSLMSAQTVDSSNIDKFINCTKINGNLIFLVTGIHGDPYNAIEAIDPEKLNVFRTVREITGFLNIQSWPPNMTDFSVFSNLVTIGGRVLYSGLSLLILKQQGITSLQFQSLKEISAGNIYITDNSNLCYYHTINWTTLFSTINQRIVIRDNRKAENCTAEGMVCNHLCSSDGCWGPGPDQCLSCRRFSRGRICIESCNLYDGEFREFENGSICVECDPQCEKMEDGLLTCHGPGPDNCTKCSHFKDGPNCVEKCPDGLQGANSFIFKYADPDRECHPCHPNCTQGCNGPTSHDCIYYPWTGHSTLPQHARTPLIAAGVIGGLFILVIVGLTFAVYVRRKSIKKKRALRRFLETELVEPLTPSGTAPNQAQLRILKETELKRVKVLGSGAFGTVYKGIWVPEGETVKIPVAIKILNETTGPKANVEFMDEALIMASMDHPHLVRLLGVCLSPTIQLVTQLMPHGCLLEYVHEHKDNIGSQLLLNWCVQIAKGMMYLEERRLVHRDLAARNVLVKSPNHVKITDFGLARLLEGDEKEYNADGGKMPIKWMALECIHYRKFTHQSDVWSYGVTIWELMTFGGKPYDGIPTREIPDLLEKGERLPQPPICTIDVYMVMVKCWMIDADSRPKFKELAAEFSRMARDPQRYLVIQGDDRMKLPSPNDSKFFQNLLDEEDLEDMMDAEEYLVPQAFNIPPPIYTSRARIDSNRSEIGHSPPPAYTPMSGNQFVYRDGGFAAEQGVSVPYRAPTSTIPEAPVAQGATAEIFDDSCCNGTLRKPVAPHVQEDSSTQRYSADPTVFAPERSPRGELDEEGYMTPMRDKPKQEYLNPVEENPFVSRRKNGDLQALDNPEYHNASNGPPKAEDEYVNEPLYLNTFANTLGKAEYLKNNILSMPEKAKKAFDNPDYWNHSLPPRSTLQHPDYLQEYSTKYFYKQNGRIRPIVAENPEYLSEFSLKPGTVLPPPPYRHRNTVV

Measured: % residual kinase activity

Sequence of Tyrosine-protein kinase HCK (Homo sapiens) (P08631 2-526 limits assumed): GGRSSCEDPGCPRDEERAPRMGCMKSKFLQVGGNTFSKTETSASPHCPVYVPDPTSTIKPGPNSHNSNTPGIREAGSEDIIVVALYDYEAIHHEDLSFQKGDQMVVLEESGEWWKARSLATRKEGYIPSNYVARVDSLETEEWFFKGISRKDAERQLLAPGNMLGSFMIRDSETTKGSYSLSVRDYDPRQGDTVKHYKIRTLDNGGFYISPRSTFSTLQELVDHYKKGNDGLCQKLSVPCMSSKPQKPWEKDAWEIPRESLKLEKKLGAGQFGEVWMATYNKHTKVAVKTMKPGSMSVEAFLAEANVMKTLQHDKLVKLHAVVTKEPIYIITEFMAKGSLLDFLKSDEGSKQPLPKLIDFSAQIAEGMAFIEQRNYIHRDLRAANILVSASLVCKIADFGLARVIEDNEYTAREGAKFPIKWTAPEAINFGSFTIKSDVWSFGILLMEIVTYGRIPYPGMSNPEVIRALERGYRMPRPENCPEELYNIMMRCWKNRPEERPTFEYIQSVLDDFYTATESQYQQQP

CCc1ccccc1C(=O)Nc1n[nH]c2c(C)c(F)c(C3C(C#N)=C(C)N(C)C(C)=C3C#N)cc12 [BAY-3827]
inactive: [1] 88% | [2] 96% | [3] 87% | [4] 100% | [5] 99% | [6] 103% | [7] 98% | [8] 98% | [9] 101%

— ChEMBL document CHEMBL4507319 (2021)
